Laboratory results from ChEMBL document CHEMBL4765340, “Novel potent antiplatelet thrombotic agent derived from biguanide for ischemic stroke” (Eur J Med Chem, 2020).
Calls of active or inactive are those of the source. The rule behind the calls is not given here.

Assays:
[1] = Toxicity against C57BL/6J mouse assessed as body weight at 200 mg/kg twice a day measured after 60 days; type: organism-based; conditions: in vivo, 1440 h, time 60 day
[2] = Inhibition of thrombin-stimulated human platelet aggregation by measuring aggregation at 0.50 mM measured after 4 hrs by scanning electron microscopy; type: functional; set-up: scale not given: the % may be the effect or the level left; conditions: dose 0.5 mM
Mus musculus [3] = test: Antithrombotic activity in calcein-labelled platelet-mediated ferric chloride-induced arterial injury thrombosis C57BL/6J mouse model assessed as thrombus length at 50 mg/kg, po administrated twice a day measured upto 7 days (reference value: 4.4 +/- 0.4 mm); type: functional; conditions: time day <=7
Mus musculus [4] = test: Antithrombotic activity in transient focal cerebral ischemic mouse model occlusion induced 60 mins of the right middle cerebral artery followed by reperfussion 23 hrs assessed as reduction of brain infract volume at 200 mg/kg, po twice daily for 7 days by TTC staining based […] analysis (reference value: 46 +/- 5%); type: functional; set-up: scale not given: the % may be the effect or the level left; conditions: time 7 day
[5] = Inhibition of thrombin-stimulated human platelet aggregation by measuring aggregation at 0.50 mM measured after 3 hrs by scanning electron microscopy; type: functional; set-up: scale not given: the % may be the effect or the level left; conditions: dose 0.5 mM
[6] = Inhibition of thrombin-stimulated human platelet aggregation by measuring aggregation at 0.50 mM measured after 3 hrs by scanning electron microscopy (Rvb= 87.2 +/- 4.0%); type: functional; set-up: scale not given: the % may be the effect or the level left; conditions: dose 0.5 mM
[7] = Toxicity against C57BL/6J mouse assessed as spleen morphology at 200 mg/kg twice a day measured after 60 days; type: organism-based; conditions: in vivo, 1440 h, time 60 day
[8] = Suppression of glycoprotein IIb/IIIa activation in thrombin-stimulated human platelets by measuring activated GPIIb/IIIa at 0.10 mM measured after 3 hrs by PAC-1-FITC dye based flow cytometry (reference value: 90.1%); type: functional; conditions: Platelet, at 0.1 mM
Mus musculus [9] = test: Antithrombotic activity in calcein-labelled platelet-mediated ferric chloride-induced arterial injury thrombosis C57BL/6J mouse model assessed as thrombus weight at 100 mg/kg, po administrated twice a day measured upto 7 days (reference value: 3.3 +/- 0.3 mg); type: functional; conditions: time day <=7
[10] = Toxicity in C57BL/6J mouse assessed as change in creatinine level at 200 mg/kg twice daily for 60 days relative to control; type: organism-based; conditions: in vivo, 1440 h, time 60 day
[11] = Toxicity in calcein-labelled platelet-mediated ferric chloride-induced arterial injury thrombosis po dosed C57BL/6J mouse model assessed as change in prothrombin time treated twice a day measured upto 7 days; type: organism-based; conditions: in vivo, 168 h, time <=7 day
[12] = Toxicity in calcein-labelled platelet-mediated ferric chloride-induced arterial injury thrombosis po dosed C57BL/6J mouse model assessed as change in activated partial thromboplastin time treated twice a day measured upto 7 days; type: organism-based; conditions: in vivo, 168 h, time <=7 day
[13] = Toxicity in calcein-labelled platelet-mediated ferric chloride-induced arterial injury thrombosis po dosed C57BL/6J mouse model assessed as change in fibrinogen treated twice a day measured upto 7 days; type: organism-based; conditions: in vivo, 168 h, time <=7 day
[14] = Inhibition of thrombin-stimulated human platelet aggregation by measuring aggregation at 0.01 mM measured after 3 hrs by scanning electron microscopy (Rvb= 87.2 +/- 4.0%); type: functional; set-up: scale not given: the % may be the effect or the level left
[15] = Suppression of P-selectin expression in thrombin-stimulated human platelets by measuring CD62P positive platelets at 0.05 mM after 3 hrs by flow cytometry analysis (reference value: 78.2%); type: functional; conditions: Platelet
[16] = Cmax in Sprague-Dawley rat at 200 mg/kg, po compound dissolved in DMSO measured after 2 hr by HPLC-MS/MS analysis; type: ADME, organism-based; set-up: route oral, time 2 hrs, dose 200 mg/kg; conditions: in vivo
[17] = Toxicity in C57BL/6J mouse assessed as change in glucose level at 200 mg/kg twice daily for 60 days relative to control; type: organism-based; conditions: in vivo, 1440 h, time 60 day
[18] = Inhibition of thrombin-stimulated human platelet aggregation by measuring aggregation at 0.50 mM measured after 2 hrs by scanning electron microscopy; type: functional; set-up: scale not given: the % may be the effect or the level left; conditions: dose 0.5 mM
[19] = Toxicity against C57BL/6J mouse assessed as lungs morphology at 200 mg/kg twice a day measured after 60 days; type: organism-based; conditions: in vivo, 1440 h, time 60 day
Platelet [20] = test: Cytotoxicity against human platelet assessed as extracellular LDH levels changes at 1 mM incubated for 3 hrs; type: cell-based; conditions: 1000 µM
[21] = Half life in Sprague-Dawley rat at 200 mg/kg, po measured by HPLC-MS/MS analysis; type: ADME, organism-based; conditions: in vivo
[22] = Toxicity in C57BL/6J mouse assessed as change in platelet distribution width at 200 mg/kg twice daily for 60 days relative to control; type: organism-based; conditions: in vivo, 1440 h, time 60 day
Mus musculus [23] = test: Antithrombotic activity in calcein-labelled platelet-mediated ferric chloride-induced arterial injury thrombosis C57BL/6J mouse model assessed as average time to occlusive thrombosis at 300 mg/kg, po administrated twice a day measured upto 7 days (reference value: 7.9 +/- 0.7 min); type: functional; conditions: time day <=7
Mus musculus [24] = test: Antithrombotic activity in transient focal cerebral ischemic mouse model occlusion induced 60 mins of the right middle cerebral artery followed by reperfussion 23 hrs assessed as decrease in blood viscosity at 200 mg/kg, po twice daily for 7 days; type: functional, organism-based; conditions: time 7.0 day
Mus musculus [25] = test: Antithrombotic activity in calcein-labelled platelet-mediated ferric chloride-induced arterial injury thrombosis C57BL/6J mouse model assessed as thrombus length at 200 mg/kg, po administrated twice a day measured upto 7 days (reference value: 4.4 +/- 0.4 mm); type: functional; conditions: time day <=7
[26] = Suppression of glycoprotein IIb/IIIa activation in thrombin-stimulated human platelets by measuring activated GPIIb/IIIa at 0.50 mM measured after 3 hrs by PAC-1-FITC dye based flow cytometry (reference value: 90.1%); type: functional; conditions: Platelet, at 0.5 mM
Platelet [27] = test: Cytotoxicity against human platelet assessed as extracellular LDH levels changes at 1 mM incubated for 6 hrs; type: cell-based; conditions: 1000 µM
[28] = Suppression of P-selectin expression in thrombin-stimulated human platelets by measuring CD62P positive platelets at 0.10 mM after 3 hrs by flow cytometry analysis (reference value: 78.2%); type: functional; conditions: Platelet, at 0.1 mM
[29] = Toxicity in C57BL/6J mouse assessed as change in bicarbonate level at 200 mg/kg twice daily for 60 days relative to control; type: organism-based; conditions: in vivo, 1440 h, time 60 day
[30] = Toxicity in C57BL/6J mouse assessed as change in sodium level at 200 mg/kg twice daily for 60 days relative to control; type: organism-based; conditions: in vivo, 1440 h, time 60 day
[31] = Suppression of glycoprotein IIb/IIIa activation in thrombin-stimulated human platelets by measuring activated GPIIb/IIIa at 1 mM measured after 3 hrs by PAC-1-FITC dye based flow cytometry (reference value: 90.1%); type: functional; conditions: Platelet
[32] = Inhibition of thrombin-induced platelet aggregation in mouse platelet isolated from C57BL/6J mouse treated at 200 mg/kg, ig twice a day for 7 days by lumi-aggregometer; type: functional; conditions: po, 168 h, time 7 day
[33] = Toxicity against C57BL/6J mouse assessed as liver morphology at 200 mg/kg twice a day measured after 60 days; type: organism-based; conditions: in vivo, 1440 h, time 60 day
[34] = Toxicity in C57BL/6J mouse assessed as change in immature platelet fraction at 200 mg/kg twice daily for 60 days relative to control; type: organism-based; conditions: in vivo, 1440 h, time 60 day
[35] = Toxicity in C57BL/6J mouse assessed as change in potassium level at 200 mg/kg twice daily for 60 days relative to control; type: organism-based; conditions: in vivo, 1440 h, time 60 day
[36] = AUC (0 to infinity) in Sprague-Dawley rat at 200 mg/kg, po measured by HPLC-MS/MS analysis; type: ADME, organism-based; set-up: time infinity, route oral, dose 200 mg/kg; conditions: in vivo

With `CN(C)C(=N)NC(=N)NS(=O)(=O)C(F)(F)F` the Activity [1] was “Non-Toxic”, the Activity [2] was 19.5% and the Activity (Mus musculus [3]) was 3.5 mm. The Activity (Mus musculus [4]) was 5%, the Activity [5] was 21% and the Activity [6] was 21%. For the same compound, the Activity [7] was “Non-Toxic”, the level, % of control at 100 µM [8] was 44.5% and the Activity (Mus musculus [9]) was 1.1 mg. For the same compound, the Activity [10] was “Non-Toxic”, the Activity [11] was “Non-Toxic” and the Activity [12] was “Non-Toxic”. The Activity [13] was “Non-Toxic”, the Activity [14] was 75.9% and the level, % of control at 50 µM [15] was 58.9%. The Cmax [16] was 24300 ng/mL, the Activity [17] was “Non-Toxic” and the Activity [18] was 35%. For the same compound, the Activity [19] was “Non-Toxic”, the Activity (Platelet [20]) was “Non-Toxic” and the half-life [21] was 4.94 h. The Activity [22] was “Non-Toxic”, the Time (Mus musculus [23]) was 22.1 min and the Activity (Mus musculus [24]) was “Active”. The Activity (Mus musculus [25]) was 1.5 mm, the level, % of control at 500 µM [26] was 37.5% and the Activity (Platelet [27]) was “Non-Toxic”. The level, % of control at 100 µM [28] was 54.7%, the Activity [29] was “Non-Toxic” and the Activity [30] was “Non-Toxic”. For the same compound, the level, % of control at 1000 µM [31] was 37.2%, the inhibition in vivo at 200 mg/kg [32] was 71.5% and the Activity [33] was “Non-Toxic”. The Activity [34] was “Non-Toxic”, the Activity [35] was “Non-Toxic” and the AUC(0-inf) [36] was 201 µg·h/mL.
